{
  "source": "patent US20150290105A1",
  "about": "“COMPOSITION COMPRISING SYRINGARESINOL FOR IMPROVING THE SKIN” (AMOREPACIFIC CORPORATION, priority 2011, published 2015)",
  "key": {"[1]": {"test": "Skin whitening effect when applied to UVB-tanned human skin", "type": "in vivo", "settings": "1% applied on upper arm after UVB, 10 weeks, 12 male subjects", "method": "First, opaque tapes having holes of 1.5 cm in diameter were attached on the upper arms of 12 healthy male subjects and UVB of about 1.5-2 times the minimal erythemal dose was irradiated to each subject to induce skin tanning. […] Then, the change was monitored for 10 weeks. The color of the skin was measured with 1-week interval using the CR2002 colorimeter (Minolta, Japan). The change in skin color (ΔL*) between the time when the test substance was applied and the time when the test was completed was calculated according to Equation 3. Skin whitening effect is evaluated by comparing the ΔL* of the part where the test substance was applied with that of the control part. A ΔL* value of about 2 can be interpreted as distinct skin whitening effect and one about 1.5 can be evaluated as positive skin whitening effect.\nΔL*=(L* when test was completed)−(L* when test substance was applied) [Equation 3]"}, "[2]": {"test": "Skin whitening effect when orally administered, UV-irradiated brown guinea pig", "type": "in vivo", "settings": "1% in feed, 5 weeks, oral", "method": "Minimal erythemal dose was measured after irradiating UV to guinea pigs. After grouping the guinea pigs with 10 per each group, UV of the minimal erythemal dose was irradiated once a day, for a total of 3 times. The guinea pigs were allowed free access to feed for 5 weeks. The feed contained 1% syringaresinol or 1% vitamin C (Vit C) as a positive control. Skin pigmentation was measure using a colorimeter in substantially the same manner as in Test Example 6."}, "involucrin": {"test_system": "involucrin", "test": "Involucrin expression promoting effect in human keratinocytes", "type": "cell-based", "settings": "HaCaT cells, FIG. 5", "method": "(§1) Human keratinocyte HaCaT cells were cultured in substantially the same manner as in Test Example 10.\ncDNA was synthesized in substantially the same manner as in Test Example 10 and the expression pattern of the filaggrin, involucrin and GAPDH genes was monitored substantially the same manner as in Test Example 10 using the synthesized cDNA and predesigned primers and probes (Applied Biosystems; […]; GAPDH, Hs99999905_ml)."}, "MMP-9": {"test_system": "MMP-9", "test": "UV-induced MMP-9 expression in human keratinocytes (western blot)", "type": "cell-based", "settings": "HaCaT cells, 50 μM, UVB 30 mJ/cm^2, FIG. 6", "method": "as §1\nThe cultured cells were treated with trypsin to obtain a single-cell suspension. Then, the cells were distributed in a 6-well plate, with 2×10^5 cells per well, and cultured for 24 hours. Subsequently, after replacing the medium with DMEM not containing fetal bovine serum and culturing again for 24 hours, the cells were treated with 50 μM syringaresinol dissolved in DMSO. After treating for 24 hours, the cells were washed with PBS and UVB of 30 mJ/cm^2 was irradiated in PBS. After discarding the PBS, the cells were added to a medium containing syringaresinol of the same concentration. As a control group, the cells were cultured in the same manner without treating with syringaresinol. […] Then, after centrifuging at 4° C. for 10 minutes with 15,000 g, the supernatant was recovered and protein was quantitated using Bio-Rad Protein Dye ReagentTM. […] Bands on the film were scanned with PowerLook 2100 XL (UMAX) and analyzed with the image-analyzing program ImageMaster 2D Elite (Amersham Bioscience)."}, "[3]": {"test": "Transepidermal water loss (TEWL) in hairless mouse", "type": "in vivo, hairless mice (SKH: HR-1)", "settings": "3 weeks, FIG. 8", "method": "30-week-old female hairless mice (SKH: HR-1) weighing 25-39 g were purchased from Charles River Laboratories (Wilmington, Mass., USA). The mice were accustomed to the laboratory environment for a week and then grouped into normal groups and test substance-treated groups, with 5 mice per each group. The mice were allowed free access to water and feed under the condition of 12-hour light/dark cycles, 23.2° C. and 55.10% humidity. For the test substance-treated groups, a patch of 1% syringaresinol dissolved in a solvent (1,3-butylene glycol:ethanol=7:3) was applied 2 times for 2 days or 200 mg/kg syringaresinol was orally administered. The control groups were treated in the same way using the solvent of the same amount instead of syringaresinol. […] Before and after the UV radiation, skin wrinkles on the exposed part were taken with replica and measured using the Visiometer system (C+K). 3 weeks after the onset of experiment, transepidermal water loss (TEWL) was measured on the back part of the hairless mouse of each group using a wireless vapometer (Delfin Technologies, Ltd., SWL 4102). […] Transepidermal water loss is the quantity of water that passes from inside the body through the skin and a larger value means poor skin moisturization ability and damaged skin barrier function. […]"}, "[4]": {"test_system": "Melanocytes (Mel-Ab cells)", "test": "Melanin production inhibiting effect in mouse melanocytes", "type": "cell-based", "settings": "Mel-Ab cells, 3 consecutive days; hydroquinone 10 ppm", "method": "The melanin production inhibiting effect of the syringaresinol obtained in Example was evaluated using mouse melanocytes. First, melanocytes (Mel-Ab cells) derived from C57BL/6 (treated with Dooley et al.'s method) were cultured under the condition of 37° C. and 5% CO2 in Dulbecco's modified Eagle's medium (DMEM) containing 10% fetal bovine serum, 100 nM 12-O-tetradecanoylphorbol-13-acetate and 1 nM cholera toxin. […] After removing the culture medium and washing with PBS, the cells were dissolved with 1 N sodium hydroxide and absorbance was measured at 400 nm. Melanin production inhibiting rate (%) was calculated according to Equation 2 from the measured absorbance. Melanin production inhibiting rate (%)=100−(Absorbance of test substance) /(Absorbance of control substance)×100 [Equation 2]"}},
  "data": [
    {"molecule": "COc1cc(C2OCC3C(c4cc(OC)c(O)c(OC)c4)OCC23)cc(OC)c1O", "note": "(stereo not shown) [Syringaresinol, syringaresinol]", "values": [
      {"measurement": "Change in skin brightness (ΔL*)", "setting": "[1]", "value": "1.98 ± 0.11"},
      {"measurement": "Skin color brightness (ΔL*)", "setting": "[2]", "value": "1.67 ± 0.25"},
      {"measurement": "Expression of involucrin", "setting": "involucrin", "value": "increases the expression"},
      {"measurement": "UV-induced MMP-9 expression", "setting": "MMP-9", "value": "inhibiting the UV-induced increase of MMP-9 expression"},
      {"measurement": "UV-induced transepidermal water loss (TEWL)", "setting": "[3]; application", "value": "decrease in UV-induced transepidermal water loss"},
      {"measurement": "UV-induced transepidermal water loss (TEWL)", "setting": "[3]; oral administration", "value": "decrease in UV-induced transepidermal water loss"},
      {"measurement": "Melanin production inhibiting rate (%)", "setting": "[4]", "value": 85.7, "unit": "%"}
    ]}
  ]
}
